The nature of one data set: in vitro. The settings on record: rat. From the text:
Brains were used from 18-day rat embryos. The extracted hippocampi were placed in modified Hanks saline solution (mHBSS, for its name in English: Hank's buffer salt solution) and washed three times to then add trypsin (0.25%). After this treatment, the hippocampi were washed with mHBSS and transferred to a MEM medium (Minimum Essential Medium) supplemented with 10% horse serum (HS), disintegrating with Pasteur pipette. The cell suspension was collected by low speed centrifugation (2000×g×20 s) at room temperature. The supernatant was saved and the pellet was broken up again with a very fine tip Pasteur pipette. Another centrifugation was performed at low speed (2000×g×20 s) at room temperature. The supernatant containing the cells in suspension was pooled with the above supernatant and the viable cells were counted using Trypan blue (0.2%). Subsequently, the neurons were seeded in culture plates in MEM supplemented with 10% HS. After the hippocampal neurons adhered to the plaque, they were exchanged for medium with a Neurobasal medium with the culture supplement B27, remaining in culture for fourteen days.
Initially, the percentage of cellular viability of said hippocampal neurons exposed to different concentrations of hydrogen peroxide was evaluated. (10, 50, 100, 200, 500 μM) during 1 h. Hydrogen peroxide (H2O2) under biological conditions, it is a highly oxidizing compound.

Data set [1] can be described thus: Neuroprotection against oxidative damage by H2O2 in hippocampal cultures (neuronal viability). The class given is cell-based. To be noted: rat, primary hippocampal neurons from 18-day rat embryos; 50 μM H2O2 for 1 h, vehicle pre-incubation, 24 h after exposure; read-out: cell viability in the control condition (vehicle) after H2O2. On the procedure: Brains were used from 18-day rat embryos.
The hippocampal neurons of rat obtained in point 2.1 were used to evaluate the neuroprotective effect of the nanofibers of the invention.
The neuroprotective effect of the antioxidant mixture (AOX) was evaluated, for which the neurons obtained in point 2.1 were incubated for 24 hours in a medium supplemented with the mixture of antioxidants obtained in Example 1.1. Neuronal viability was compared to control (incubated with the vehicle without antioxidants) at concentrations of 0.001, 1, 10, 100, 150 and 200 μM of AOX, before and after the exposure of crops to a concentration of 50 μM of H2O2, during 1 h of incubation.
The neuroprotective effect of the nanofibers of the invention (NF) was evaluated, for which the neurons obtained in point 2.1 were incubated for 24 hours in a medium supplemented with the nanofibers of the invention obtained in Example 1.2. The neuronal viability compared to the control (incubated with the vehicle without nanofibers) was compared with nanofibers containing concentrations of 0.001, 1, 10, 100, 150 and 200 μM of AOX, before and after the exposure of crops to a concentration of 50 μM of H2O2, during 1 hour of incubation.

In general, viability refers to a read-out of living cells in per cent, often relative to untreated cells. Regarding `OO` [H2O2, Hydrogen peroxide], in “in vitro”, the viability at 1 h, 10 μM was found to be 69.5%; the viability at 1 h, 50 μM worked out at 44.3%; the viability at 1 h, 100 μM stood at 29.1%; the viability at 1 h, 200 μM is 19.6%. In addition, the viability at 1 h, 500 μM in “in vitro” was 15.8%. The viability at 1 h, 50 μM in data set [1] was less than 50%.

Values taken from US11357737B2, “Chitosan nanofibers containing bioactive compounds” (FUNDACION COPEC UNIVERSIDAD CATÓLICA, priority 2015, dated 2022).
